Reference: patent US20200405697A1, “Antitumor Agent” (Taiho Pharmaceutical Co., Ltd, priority 2017, published 2020)
pIC50: −log10 of the molar value.

target: T1, human RNR (histidine tagged human M1 and human M2 proteins) (Homo sapiens, UniProt P23921); test: Human RNR inhibition effect (dCDP formation from CDP); format: biochemical; conditions: 10 μM CDP, 37° C. for 30 minutes, read-out: RNR inhibitory activity IC50
T1 construct: made in house; host or cells: Escherichia coli
T1 sequence (P23921 1-792): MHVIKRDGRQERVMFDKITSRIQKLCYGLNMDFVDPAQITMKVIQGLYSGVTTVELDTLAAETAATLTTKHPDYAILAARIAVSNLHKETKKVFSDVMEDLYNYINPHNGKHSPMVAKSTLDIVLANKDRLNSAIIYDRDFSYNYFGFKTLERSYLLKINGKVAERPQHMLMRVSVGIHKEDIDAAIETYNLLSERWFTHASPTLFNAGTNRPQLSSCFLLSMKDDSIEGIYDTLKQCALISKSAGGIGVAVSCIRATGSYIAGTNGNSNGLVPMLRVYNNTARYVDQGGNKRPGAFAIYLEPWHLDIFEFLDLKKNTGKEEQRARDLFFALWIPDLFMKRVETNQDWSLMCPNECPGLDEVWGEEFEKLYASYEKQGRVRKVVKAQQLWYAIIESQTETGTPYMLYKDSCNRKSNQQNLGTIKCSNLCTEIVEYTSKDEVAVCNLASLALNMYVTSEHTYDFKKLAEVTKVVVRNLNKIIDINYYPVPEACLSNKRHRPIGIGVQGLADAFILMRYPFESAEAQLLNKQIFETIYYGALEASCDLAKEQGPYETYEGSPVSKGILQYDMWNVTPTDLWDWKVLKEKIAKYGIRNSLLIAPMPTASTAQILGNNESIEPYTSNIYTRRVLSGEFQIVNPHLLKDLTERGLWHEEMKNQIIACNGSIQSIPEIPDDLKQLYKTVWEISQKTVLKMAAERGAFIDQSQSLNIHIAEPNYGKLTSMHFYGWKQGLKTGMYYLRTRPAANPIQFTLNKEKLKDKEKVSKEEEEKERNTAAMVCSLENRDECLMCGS
Outline: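 His-tagged human M1 (isoform 1) and N-terminal 59-aa-truncated M2 (isoform 2), E. coli-expressed, Ni-purified, preincubated 20 min with compound (1% DMSO). Reaction with 10 μM CDP, 2 mM ATP, 0.24 mM NADPH, 6 mM DTT, 4 mM Mg acetate, 100 mM KCl, 50 mM HEPES pH 7.2, 30 min at 37° C. dCDP formed quantified by reverse-phase HPLC after heat stop.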

Q: How did the pIC50 turn out when `Cc1ccc(F)c([C@@H](C)[C@H](NS(=O)(=O)c2ccc(Cl)cc2OC(F)F)c2n[nH]c(=O)o2)c1C` [Example 146, 4-chloro-2-(difluoromethoxy)-N-((1S,2R)-2-(6-fluoro-2,3-dimethylphenyl)-1-(5-oxo-4,5-dihydro-1,3,4-oxadiazol-2-yl)propyl)benzenesulfonamide] was run?
A: 6.59

Q: With `[2H]C([2H])([2H])C1(OC(C)=O)CCOc2c(S(=O)(=O)N[C@H](c3n[nH]c(=O)o3)[C@H](C)c3c(F)ccc(C)c3C)ccc(Cl)c21` (stereo partly drawn) [Example 129, 5-Chloro-8-(N-((1S,2R)-2-(6-fluoro-2,3-dimethylphenyl)-1-(5-oxo-4,5-dihydro-1,3,4-oxadiazol-2-yl)propyl)sulfamoyl)-4-methyl-d3-chroman-4-yl Acetate] as the compound, how does the pIC50 read?
A: 7.00

Q: `Cc1cccc(F)c1[C@@H](C)[C@H](NS(=O)(=O)c1ccc(Cl)cc1C(N)=O)c1n[nH]c(=O)o1` [Example 22, 5-chloro-2-(N-((1S,2R)-2-(2-fluoro-6-methylphenyl)-1-(5-oxo-4,5-dihydro-1,3,4-oxadiazol-2-yl)propyl)sulfamoyl)benzamide] was tested. Which pIC50 did it give?
A: 6.47

Q: How did the pIC50 turn out when `C[C@H](c1cccc2c1CCC2)[C@H](NS(=O)(=O)c1ccc(Br)c(C(C)(C)O)c1)c1n[nH]c(=O)o1` [Example 188, 4-bromo-N-((1S,2R)-2-(2,3-dihydro-1H-inden-4-yl)-1-(5-oxo-4,5-dihydro-1,3,4-oxadiazol-2-yl)propyl)-3-(2-hydroxypropan-2-yl)benzenesulfonamide] was run?
A: 6.19

Q: With `CC(=O)c1cc(Cl)ccc1S(=O)(=O)N[C@H](c1n[nH]c(=O)o1)[C@H](C)c1c(F)ccc(C)c1C` [Example 147, 2-acetyl-4-chloro-N-((1S,2R)-2-(6-fluoro-2,3-dimethylphenyl)-1-(5-oxo-4,5-dihydro-1,3,4-oxadiazol-2-yl)propyl)benzenesulfonamide] as the compound, how does the pIC50 read?
A: 6.57

Q: `CCc1ccc(F)c([C@@H](C)[C@H](NS(=O)(=O)c2ccc(Cl)c3c2OCCC3O)c2n[nH]c(=O)o2)c1C` (single isomer, unassigned) [Example 239A] was tested. Which pIC50 did it give?
A: 6.70

Q: `Cc1c(Br)ccc(F)c1[C@@H](C)[C@H](NS(=O)(=O)c1ccc(Cl)c2c1OCCC2(C)O)c1n[nH]c(=O)o1` (single isomer, unassigned) [Example 222B] was tested. Which pIC50 did it give?
A: 7.22

Q: How did the pIC50 turn out when `Cc1ccc(F)c([C@@H](C)[C@H](NS(=O)(=O)c2cc(-c3nnco3)ccc2C(N)=O)c2n[nH]c(=O)o2)c1C` [Example 331, 2-(N-((1S,2R)-2-(6-fluoro-2,3-dimethylphenyl)-1-(5-oxo-4,5-dihydro-1,3,4-oxadiazol-2-yl)propyl)sulfamoyl)-4-(1,3,4-oxadiazol-2-yl)benzamide] was run?
A: 7.05

Q: How did the pIC50 turn out when `Cc1ccc(F)c([C@@H](C)[C@H](NS(=O)(=O)c2ccc(Cl)c3c2OCCC3(C)O)c2n[nH]c(=O)o2)c1C` (single isomer, unassigned) [Example 207A] was run?
A: 6.89

Q: `Cc1ccc(F)c([C@@H](C)[C@H](NS(=O)(=O)c2ccc(C(F)(F)F)cc2C(N)=O)c2n[nH]c(=O)o2)c1C` [Example 41, 2-(N-((1S,2R)-2-(6-fluoro-2,3-dimethylphenyl)-1-(5-oxo-4,5-dihydro-1,3,4-oxadiazol-2-yl)propyl)sulfamoyl)-5-(trifluoromethyl)benzamide] was tested. Which pIC50 did it give?
A: 7.00

Q: `Cc1ccc(F)c([C@@H](C)[C@H](NS(=O)(=O)c2ccc(Br)cc2OC(F)(F)F)c2n[nH]c(=O)o2)c1C` [Example 338, 4-bromo-N-((1S,2R)-(6-fluoro-2,3-dimethylphenyl)-1-(5-oxo-4,5-dihydro-1,3,4-oxadiazol-2-yl)propyl)-2-(trifluoromethoxy)benzenesulfonamide] was tested. Which pIC50 did it give?
A: 7.00

Q: `CNC(=O)c1cc(Cl)ccc1S(=O)(=O)N[C@H](c1n[nH]c(=O)o1)[C@H](C)c1c(F)ccc(C)c1C` [Example 277, 5-chloro-2-(N-((1S,2R)-2-(6-fluoro-2,3-dimethylphenyl)-1-(5-oxo-4,5-dihydro-1,3,4-oxadiazol-2-yl)propyl)sulfamoyl)-N-methylbenzamide] was tested. Which pIC50 did it give?
A: 6.43

Q: With `Cc1ccc(F)c([C@@H](C)[C@H](NS(=O)(=O)c2ccc3[nH]c(=O)c(=O)[nH]c3c2)c2n[nH]c(=O)o2)c1C` [Example 172, N-((1S,2R)-2-(6-fluoro-2,3-dimethylphenyl)-1-(5-oxo-4,5-dihydro-1,3,4-oxadiazol-2-yl)propyl)-2,3-dioxo-1,2,3,4-tetrahydroquinoxaline-6-sulfonamide] as the compound, how does the pIC50 read?
A: 6.09

Q: `COc1ccc(-c2cc(S(=O)(=O)N[C@H](c3n[nH]c(=O)o3)[C@H](C)c3c(F)ccc(C)c3C)ccc2Cl)cc1` [Example 344, 6-chloro-N-((1S,2R)-2-(6-fluoro-2,3-dimethylphenyl)-1-(5-oxo-4,5-dihydro-1,3,4-oxadiazol-2-yl)propyl)-4′-methoxy-[1,1′-biphenyl]-3-sulfonamide] was tested. Which pIC50 did it give?
A: 6.14

Q: How did the pIC50 turn out when `C[C@H](c1cccc2c1CCC2)[C@H](NS(=O)(=O)c1ccc(Cl)c(C(C)(C)O)n1)c1n[nH]c(=O)o1` [Example 192, 5-chloro-N-((1S,2R)-2-(2,3-dihydro-1H-inden-4-yl)-1-(5-oxo-4,5-dihydro-1,3,4-oxadiazol-2-yl)propyl)-6-(2-hydroxypropan-2-yl)pyridine-2-sulfonamide] was run?
A: 6.36

Q: How did the pIC50 turn out when `COc1cc(S(=O)(=O)N[C@H](c2n[nH]c(=O)o2)[C@H](C)c2c(F)ccc(C)c2C)c(C(N)=O)cc1Cl` [Example 259, 5-chloro-2-(N-((1S,2R)-2-(6-fluoro-2,3-dimethylphenyl)-1-(5-oxo-4,5-dihydro-1,3,4-oxadiazol-2-yl)propyl)sulfamoyl)-4-methoxybenzamide] was run?
A: 7.00

Q: With `COc1cc(Cl)ccc1S(=O)(=O)N[C@H](c1n[nH]c(=O)o1)C(C)c1c(F)c(F)cc(C)c1Br` (stereo partly drawn) [Example 89, N-((1S)-2-(2-bromo-5,6-difluoro-3-methylphenyl)-1-(5-oxo-4,5-dihydro-1,3,4-oxadiazol-2-yl)propyl)-4-chloro-2-methoxybenzenesulfonamide] as the compound, how does the pIC50 read?
A: 6.38

Q: With `Cc1ccc(F)c([C@@H](C)[C@H](NS(=O)(=O)c2ccc(F)c3c2OCCC3=O)c2n[nH]c(=O)o2)c1C` [Example 159, 5-fluoro-N-((1S,2R)-2-(6-fluoro-2,3-dimethylphenyl)-1-(5-oxo-4,5-dihydro-1,3,4-oxadiazol-2-yl)propyl)-4-oxochroman-8-sulfonamide] as the compound, how does the pIC50 read?
A: 6.80

Q: How did the pIC50 turn out when `[2H]C([2H])([2H])C1(O)CCOc2c(S(=O)(=O)N[C@H](c3n[nH]c(=O)o3)[C@H](C)c3c(F)ccc(Br)c3C)ccc(Cl)c21` (single isomer, unassigned) [Example 226A] was run?
A: 7.30

Q: How did the pIC50 turn out when `Cc1ccc(F)c([C@@H](C)[C@H](NS(=O)(=O)c2cccc3c2OCCN3C(=O)C2CC2)c2n[nH]c(=O)o2)c1C` [Example 99, 4-(cyclopropanecarbonyl)-N-((1S,2R)-2-(6-fluoro-2,3-dimethylphenyl)-1-(5-oxo-4,5-dihydro-1,3,4-oxadiazol-2-yl)propyl)-3,4-dihydro-2H-benzo[b][1,4]oxazine-8-sulfonamide] was run?
A: 6.54

Q: How did the pIC50 turn out when `Cc1ccc(F)c([C@@H](C)[C@H](NS(=O)(=O)c2ccc(Cl)cc2C(C)O)c2n[nH]c(=O)o2)c1C` (stereo partly drawn) [Example 236, 4-chloro-N-((1S,2R)-2-(6-fluoro-2,3-dimethylphenyl)-1-(5-oxo-4,5-dihydro-1,3,4-oxadiazol-2-yl)propyl)-2-(1-hydroxyethyl)benzenesulfonamide] was run?
A: 6.42

Q: `COc1ccc(-c2ccc(F)c([C@@H](C)[C@H](NS(=O)(=O)c3ccc(Cl)cc3OC)c3n[nH]c(=O)o3)c2C)cn1` [Example 314, 4-chloro-N-((1S,2R)-2-(6-fluoro-3-(6-methoxypyridin-3-yl)-2-methylphenyl)-1-(5-oxo-4,5-dihydro-1,3,4-oxadiazol-2-yl)propyl)-2-methoxybenzenesulfonamide] was tested. Which pIC50 did it give?
A: 6.59

Q: How did the pIC50 turn out when `Cc1c(F)ccc(F)c1[C@@H](C)[C@H](NS(=O)(=O)c1ccc(Cl)cc1C(N)=O)c1n[nH]c(=O)o1` [Example 28, 5-chloro-2-(N-((1S,2R)-2-(3,6-difluoro-2-methylphenyl)-1-(5-oxo-4,5-dihydro-1,3,4-oxadiazol-2-yl)propyl)sulfamoyl)benzamide] was run?
A: 6.30

Q: With `COc1ncc(-c2ccc(F)c([C@@H](C)[C@H](NS(=O)(=O)c3ccc(Cl)cc3OC)c3n[nH]c(=O)o3)c2C)cn1` [Example 319, 4-chloro-N-((1S,2R)-2-(6-fluoro-3-(2-methoxypyrimidin-5-yl)-2-methylphenyl)-1-(5-oxo-4,5-dihydro-1,3,4-oxadiazol-2-yl)propyl)-2-methoxybenzenesulfonamide] as the compound, how does the pIC50 read?
A: 6.55
